This note sets out measurements from patent US9132108B2, “Pharmaceutical composition for ameliorating and/or preventing leptin resistance, and use thereof” (HIROSHIMA UNIVERSITY, priority 2009, dated 2015).

Molecules are shown by their SMILES.

The subject of data set [1] is mice given high-fat diet for 6 months (leptin resistance). Nature of the data set: Visceral fat of leptin-resistant mice, therapeutic effect (Example 8). It counts as in vivo, mouse. Conditions: 3 weeks after flurbiprofen administration, 3 mg/kg per day orally; vs control group; P<0.01. The text has this:
In Example 8, effectiveness of flurbiprofen in ameliorating leptin resistance was confirmed by measuring a change in body weight of mice as a reference index. Specifically, 4 weeks-old male mice (C57BL/6 Cr Slc) had been given high-fat diet for 6 months so that leptin resistance would be induced in the mice. Thereafter, the mice were divided into two groups (each consisting of 14 mice), and the mice of individual groups were given the following diets for 3 weeks. • Control group (Cont): normal diet (10 kcal % fat) only • Flurbiprofen-administered group (Ful): normal diet+flurbiprofen Flurbiprofen (F8514, produced by SIGMA) was diluted with drinking water so that the administration amount of flurbiprofen would be 3 mg/kg per day, and was orally administered to the mice in the form of drinking water. The rates of change in body weight of the mice of individual groups were measured with the date when administration of flurbiprofen started (0 week) as a reference. Further, the amount of visceral fat (g) was measured. The visceral fat was extracted from abdomens of the mice and wet weight thereof was measured. FIG. 14 is a graph showing the amount of visceral fat (g) of the mice of the control group and the mice of the flurbiprofen-administered group which had been given normal diet for 3 weeks. […]

The subject of a further data set is mice. Nature of the data set: Body length of mice after flurbiprofen administration (Example 10). It counts as in vivo, mouse. Conditions: flurbiprofen-administered group vs control group; 3 mg/kg per day orally, 3 weeks. How it is done: Similarly with Example 8, 4 weeks-old male mice (C57BL/6 Cr Slc) had been given high-fat diet for 6 months so that leptin resistance would be induced in the mice. Thereafter, the mice were divided into two groups (each consisting of 8 mice), and the mice of individual groups were given the following diets for 3 weeks. • Control group (Cont): normal diet (10 kcal % fat) only • Flurbiprofen-administered group (Ful): normal diet+flurbiprofen Flurbiprofen (F8514, produced by SIGMA) was diluted with drinking water so that the administration amount of flurbiprofen would be 3 mg/kg per day, and was orally administered to the mice in the form of drinking water. The result of measurement of body length of the mice, to which flurbiprofen had been administered for 3 weeks, is shown in FIG. 16. FIG. 16 is a graph showing the body length (cm) of the mice of the control group and the mice of the flurbiprofen-administered group which had been given normal diet for 3 weeks. Values in the graph of FIG. 16 are averages of body lengths (cm) of mice of each group (± their standard deviations) (n=8 with respect to each group). Further, statistic analysis was carried out using t-test.

Turning to `C[C@@H](C(=O)O)c1ccc(-c2ccccc2)c(F)c1` [flurbiprofen], the “amount of visceral fat” value in data set [1] is listed as “significantly decreased”. The body length result in the data set on mice is “no significant difference in body length”.
